# Test results: patent US20250339409A1, “USES OF PAN BET INHIBITORS” (VYNE THERAPEUTICS INC., priority 2021, published 2025)
# Tested on: 92 target genes related to melanogenesis
# Test: RHE vitiligo model: gene expression analysis (TaqMan low density array, RT-qPCR)
# Format: cell-based, human
# Design: key to FC of XPC gene expression / FC of GNAS gene expression / FC of ATP7A gene expression / FC of TYR gene expression / FC of RAB27A gene expression / FC of KITLG gene expression / FC of ADCY2 gene expression: fold change in expression by comparative Ct (ΔΔCt) method
# Protocol: At the end of the treatments, total RNAs is extracted from 3 epidermis per condition (n=3) using the Qiagen RNeasy kit (Qiagen; 74106). Epidermis is rinsed with cold PBS and lysed in the ad hoc buffer provided in the kit. Extraction is performed according to the supplier's recommendations. The collected RNAs is stored at −80° C.
# The RNA concentration is determined by spectrophotometric measurement (QIAxpert, Qiagen) and the RNA quality is analyzed by capillarity electrophoresis (Agilent Bioanalyzer 2100-Agilent RNA 6000 Nano Kit, 5067-1511). The integrity of the total RNA is assessed by visualization of intact ribosomal RNA bands. For the total RNA from higher eukaryotes, the size of the ribosomal bands should be 1.9 kb for the 18S-RNA and 4.7 kb for the 28S-RNA. The intensity of the band corresponding to the 28S RNA must be greater than the intensity of the band corresponding to the 18S-RNA (left profile, in image below). Small and diffuse bands representing low molecular weight RNAs (tRNA and 5S ribosomal RNA) may be present. Degradation of the RNA is apparent as a smearing of ribosomal RNA bands and high molecular weight background as shown below (right profile, in image below).
# Reverse transcription is performed with the high-capacity RNA-to-cDNA kit (Applied Biosystems; 438706) from total RNA according to the manufacturer's instructions. The cDNAs are then stored at −20° C. until use in polymerase chain reactions.
# The microfluidic TaqMan qPCR arrays (or TaqMan low density arrays) were designed by StratiCELL and manufactured on demand by Applied Biosystems. […]
# The TaqMan arrays are processed as described by the manufacturer's instructions (Micro Fluidic Card Getting Started Guide, Applied Biosystems). Briefly, cDNAs are mixed with a specific buffer (TaqMan Fast Advanced Master Mix, 4444557, Applied Biosystems) before being injected into the arrays and dispersed into the wells by centrifugation. Arrays are sealed and qPCRs are run using the Quantstudio7 Real-Time PCR System (Applied Biosystems) and its software (QuantStudio real time PCR Software v1.3. software, Applied Biosystems).
# Threshold cycles (Ct) are obtained for each gene. Results files are exported from the qPCR device and analyzed using the DataAssist Software (v3.00, Applied Biosystems) designed to perform relative quantification of gene expression using the comparative Ct (ΔΔCt) method, through a combination of statistical analysis.
# The data obtained for the conditions treated with the formulations is compared to the untreated condition or to the condition treated with the vehicle. The effects of the cytokine cocktail stimulation are analyzed as well by comparison of the data obtained for the untreated control (unstimulated) to the data obtained for the stimulated untreated control. The Ct values are normalized to the mean Ct of 3 housekeeping genes present on the array. The maximum Ct cut-off value was fixed at 36 cycles meaning that Ct values above 36 are not considered in the analysis. […]
# [1] = Stimulated + BETi1 0.001% vs Stimulated + BETi1 vehicle, results after correction
# [2] = Stimulated + BETi1 0.001% vs Stimulated + BETi1 vehicle, results after correction, inconclusive, Ct of some replicates above 36
# [3] = Stimulated + BETi1 0.001% vs Stimulated + BETi1 vehicle, results as originally presented (transcription error)
# [4] = Stimulated + BETi1 0.001% vs Stimulated + BETi1 vehicle, results as originally presented (transcription error), inconclusive, Ct of some replicates above 36
# [5] = Stimulated + BETi1 1% vs Stimulated + BETi1 vehicle, results after correction
# [6] = Stimulated + BETi1 1% vs Stimulated + BETi1 vehicle, results after correction, inconclusive, Ct of some replicates above 36
# [7] = Stimulated + BETi1 1% vs Stimulated + BETi1 vehicle, results as originally presented (transcription error for some genes)
# [8] = Stimulated + BETi1 1% vs Stimulated + BETi1 vehicle, results as originally presented (transcription error for some genes), inconclusive, Ct of some replicates above 36
# [9] = Stimulated RHE treated with BETi1 at 0.01% vs BETi1 vehicle
# [10] = Stimulated RHE treated with BETi1 at 0.1% vs BETi1 vehicle
# [11] = stimulated RHE, vs stimulated + vehicle
# [12] = stimulated RHE, vs stimulated + vehicle, listed as BETi1 0.1%
# [13] = stimulated RHE, vs stimulated + vehicle, listed as BETi1 1%
smiles,measurement,setting,value
Cn1cc(-c2cccc(O)c2Oc2ccccc2)c2cc[nH]c2c1=O [BETi1],"WNT signaling pathway upregulation, increase","1% concentration, relative to vehicle / stimulated control",10 fold
same,FC of AP1M1 gene expression,[1],0.7447
same,FC of APAF1 gene expression,[1],1.5797
same,FC of BCL2 gene expression,[1],0.7462
same,FC of HPS4 gene expression,[1],0.6711
same,FC of POMC gene expression,[1],0.5586
same,FC of ASIP gene expression,[2],0.7104
same,FC of CALML6 gene expression,[2],0.7104
same,FC of GNAO1 gene expression,[2],0.7104
same,FC of AP1M1 gene expression,[3],0.6303
same,FC of APAF1 gene expression,[3],3.5532
same,FC of BCL2 gene expression,[3],1.3312
same,FC of HPS4 gene expression,[3],0.4147
same,FC of POMC gene expression,[3],0.3574
same,FC of ASIP gene expression,[4],0.6303
same,FC of GNAO1 gene expression,[4],0.6303
same,FC of AIM1 gene expression,[5],0.4502
same,FC of AP1S1 gene expression,[5],0.6116
same,FC of ATP2A2 gene expression,[5],0.2632
same,FC of ATP7A gene expression,[5],0.4094
same,FC of BAD gene expression,[5],0.2547
same,FC of BCL2 gene expression,[5],0.5772
same,FC of CREBBP gene expression,[5],0.3195
same,FC of DVL1 gene expression,[5],0.4492
same,FC of EDN1 gene expression,[5],0.0395
same,FC of EDNRB gene expression,[5],0.1544
same,FC of GADD45A gene expression,[5],0.2375
same,FC of GNAI1 gene expression,[5],0.3672
same,FC of GNAS gene expression,[5],0.4273
same,FC of HPS1 gene expression,[5],0.5127
same,FC of HPS4 gene expression,[5],0.3088
same,FC of IL1A gene expression,[5],0.0124
same,FC of IL1B gene expression,[5],0.0208
same,FC of KIT gene expression,[5],0.6404
same,FC of MAPK14 gene expression,[5],0.3927
same,FC of MLPH gene expression,[5],0.3039
same,FC of MYO5A gene expression,[5],0.4524
same,FC of OCA2 gene expression,[5],0.293
same,FC of PCNA gene expression,[5],7.0134
same,FC of POMC gene expression,[5],0.1039
same,FC of PTGER3 gene expression,[5],0.4259
same,FC of RAB3A gene expression,[5],14.5685
same,FC of RAB27A gene expression,[5],0.2763
same,FC of RAB32 gene expression,[5],0.1471
same,FC of RAB38 gene expression,[5],0.3579
same,FC of SLC24A5 gene expression,[5],0.1051
same,FC of SNAP25 gene expression,[5],0.2366
same,FC of SOX9 gene expression,[5],0.0882
same,FC of SOX10 gene expression,[5],0.4034
same,FC of STX6 gene expression,[5],0.3683
same,FC of TYR gene expression,[5],0.405
same,FC of USF1 gene expression,[5],0.497
same,FC of WNT16 gene expression,[5],10.0801
same,FC of XPC gene expression,[5],1.6569
same,FC of ASIP gene expression,[6],0.4753
same,FC of CALML6 gene expression,[6],0.4753
same,FC of CAMK2A gene expression,[6],0.4753
same,FC of GNAO1 gene expression,[6],0.4753
same,FC of PTGER1 gene expression,[6],0.4753
same,FC of AIM1 gene expression,[7],0.4753
same,FC of AP1S1 gene expression,[7],0.727
same,FC of ATP2A2 gene expression,[7],0.293
same,FC of ATP7A gene expression,[7],0.4273
same,FC of BAD gene expression,[7],0.2763
same,FC of BCL2 gene expression,[7],0.6404
same,FC of CREBBP gene expression,[7],0.3672
same,FC of DVL1 gene expression,[7],0.4524
same,FC of EDN1 gene expression,[7],0.1039
same,FC of EDNRB gene expression,[7],0.2375
same,FC of GADD45A gene expression,[7],0.2632
same,FC of GNAI1 gene expression,[7],0.3927
same,FC of GNAS gene expression,[7],0.4502
same,FC of HPS1 gene expression,[7],0.6116
same,FC of HPS4 gene expression,[7],0.3579
same,FC of IL1A gene expression,[7],0.0395
same,FC of IL1B gene expression,[7],0.0882
same,FC of KIT gene expression,[7],1.6569
same,FC of MAPK14 gene expression,[7],0.405
same,FC of MLPH gene expression,[7],0.3195
same,FC of MYO5A gene expression,[7],0.4753
same,FC of OCA2 gene expression,[7],0.3088
same,FC of PCNA gene expression,[7],7.0134
same,FC of POMC gene expression,[7],0.1471
same,FC of PTGER3 gene expression,[7],0.4492
same,FC of RAB3A gene expression,[7],14.5685
same,FC of RAB27A gene expression,[7],0.3039
same,FC of RAB32 gene expression,[7],0.2366
same,FC of RAB38 gene expression,[7],0.3683
same,FC of SLC24A5 gene expression,[7],0.1544
same,FC of SNAP25 gene expression,[7],0.2547
same,FC of SOX9 gene expression,[7],0.1051
same,FC of SOX10 gene expression,[7],0.4094
same,FC of STX6 gene expression,[7],0.4034
same,FC of TYR gene expression,[7],0.4259
same,FC of USF1 gene expression,[7],0.5772
same,FC of WNT16 gene expression,[7],10.0801
same,FC of XPC gene expression,[7],1.8367
same,FC of ASIP gene expression,[8],0.5127
same,FC of CALML6 gene expression,[8],0.497
same,FC of CAMK2A gene expression,[8],0.4753
same,FC of GNAO1 gene expression,[8],0.4753
same,FC of PTGER1 gene expression,[8],0.4753
same,FC of AP1S1 gene expression,[9],1.3312
same,FC of ASIP gene expression,[9],0.6303
same,FC of CALML6 gene expression,[9],0.6303
same,FC of CAMK2A gene expression,[9],0.6303
same,FC of GADD45A gene expression,[9],0.3574
same,FC of GNAO1 gene expression,[9],0.6303
same,FC of POMC gene expression,[9],0.4147
same,FC of RAB3A gene expression,[9],3.5532
same,FC of ADCY2 gene expression,[10],0.1137
same,FC of AP1M1 gene expression,[10],0.6311
same,FC of ATP2A2 gene expression,[10],0.2769
same,FC of BAD gene expression,[10],0.2735
same,FC of CALML6 gene expression,[10],0.5429
same,FC of CAMK2A gene expression,[10],0.5043
same,FC of EDN1 gene expression,[10],0.0413
same,FC of EDNRB gene expression,[10],0.2737
same,FC of GADD45A gene expression,[10],0.1803
same,FC of GNAI1 gene expression,[10],0.5815
same,FC of HPS4 gene expression,[10],0.4224
same,FC of IL1A gene expression,[10],0.0454
same,FC of IL1B gene expression,[10],0.0727
same,FC of KITLG gene expression,[10],1.8415
same,FC of MAPK14 gene expression,[10],0.4724
same,FC of MLPH gene expression,[10],0.355
same,FC of MYO5A gene expression,[10],0.5462
same,FC of PCNA gene expression,[10],3.2615
same,FC of POMC gene expression,[10],0.1665
same,FC of PPIA gene expression,[10],1.6969
same,FC of PTGER3 gene expression,[10],0.4799
same,FC of RAB3A gene expression,[10],10.8195
same,FC of RAB32 gene expression,[10],0.2378
same,FC of RAB38 gene expression,[10],0.5643
same,FC of SLC24A5 gene expression,[10],0.272
same,FC of SOX9 gene expression,[10],0.1155
same,FC of SOX10 gene expression,[10],0.4196
same,FC of STX6 gene expression,[10],0.4214
same,FC of WNT16 gene expression,[10],8.7922
same,RQ (fold change) AP1S1,[11],1.3312
same,RQ (fold change) APAF1,[11],1.5797
same,RQ (fold change) HSP4,[11],0.6711
same,RQ (fold change) KITLG,[11],1.8415
same,RQ (fold change) POMC,[11],0.5586
same,RQ (fold change) PPIA,[11],1.6969
same,RQ (fold change) XPC,[11],1.6569
same,RQ (fold change) RAB3A,"stimulated RHE, vs stimulated + vehicle, listed as BETi1 0.01%",3.5532
same,RQ (fold change) EDN1,[12],0.0413
same,RQ (fold change) IL1A,[12],0.0454
same,RQ (fold change) IL1B,[12],0.0727
same,RQ (fold change) PCNA,[12],3.2615
same,RQ (fold change) RAB3A,[12],10.8195
same,RQ (fold change) SOX9,[12],0.1155
same,RQ (fold change) WNT16,[12],8.7922
same,RQ (fold change) EDN1,[13],0.0395
same,RQ (fold change) IL1A,[13],0.0124
same,RQ (fold change) IL1B,[13],0.0208
same,RQ (fold change) PCNA,[13],7.0134
same,RQ (fold change) RAB3A,[13],14.5685
same,RQ (fold change) SOX9,[13],0.0882
same,RQ (fold change) WNT16,[13],10.0801
